From ChEMBL document CHEMBL1155854, “Conformationally constrained farnesoid X receptor (FXR) agonists: Naphthoic acid-based analogs of GW 4064” (Bioorg Med Chem Lett, 2008)

Tests used:
[1] = target: T1, Bile acid receptor (Homo sapiens, UniProt Q96RI1); assay: Agonist activity at FXR assessed as receptor-SRC-1 peptide interaction by FRET assay; type: functional
T1 sequence (Q96RI1 whole entry): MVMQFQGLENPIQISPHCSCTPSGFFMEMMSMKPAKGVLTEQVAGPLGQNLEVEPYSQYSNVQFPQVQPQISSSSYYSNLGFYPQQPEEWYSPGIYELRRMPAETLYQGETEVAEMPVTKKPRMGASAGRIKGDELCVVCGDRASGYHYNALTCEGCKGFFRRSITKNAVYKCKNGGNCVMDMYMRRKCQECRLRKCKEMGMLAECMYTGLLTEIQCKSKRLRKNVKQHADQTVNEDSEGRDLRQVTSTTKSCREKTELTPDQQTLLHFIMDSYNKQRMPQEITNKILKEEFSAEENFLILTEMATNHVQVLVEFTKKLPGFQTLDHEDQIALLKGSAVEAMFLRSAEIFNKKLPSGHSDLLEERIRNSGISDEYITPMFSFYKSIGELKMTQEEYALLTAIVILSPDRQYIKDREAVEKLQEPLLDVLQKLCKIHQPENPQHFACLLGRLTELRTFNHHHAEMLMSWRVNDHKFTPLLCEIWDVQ

[2] = target: T2, Bile acid receptor (Homo sapiens) (UniProt Q96RI1); assay: Agonist activity at FXR assessed as receptor-SRC-1 peptide interaction by FRET assay relative to GW-4064; type: functional
T2 sequence (whole entry): T1 sequence (Q96RI1 whole entry)

[3] = target: T1, Bile acid receptor; assay: Agonist activity at FXR expressed in african green monkey CV1 cells by luciferase reporter transient transfection assay; type: functional, cell-based, CV-1
[4] = target: T2, Bile acid receptor (Homo sapiens); assay: Agonist activity at FXR expressed in african green monkey CV1 cells by luciferase reporter transient transfection assay relative to GW-4064; type: functional, cell-based; conditions: CV-1

SMILES | EC50 [1] [nM] | %max [2] [%] | EC50 [3] [nM] | %max [4] [%]
CC(C)c1onc(-c2c(Cl)cccc2Cl)c1COc1ccc(-c2ccc3ccc(C(=O)O)cc3c2)cc1 | 420 | 69 | 500 | 90
CC(C)c1onc(-c2c(Cl)cccc2Cl)c1COc1ccc(-c2ccc3cc(C(=O)O)ccc3c2)cc1 | 100 | 90 | 45 | 87
CC(C)c1onc(-c2c(Cl)cccc2Cl)c1COc1ccc(-c2ccc3cccc(C(=O)O)c3c2)cc1 | 2300 | 52 | 3300 | 27
